Measured values: ChEMBL document CHEMBL1156969 (Bioorg Med Chem Lett, 2010)
Active and inactive are the calls of the source. The calls are words filed in the database; no cut-off is given here.

How the values were obtained:
[1] = target: T1, Melatonin receptor type 1B (Homo sapiens, UniProt P49286); experiment: Displacement of [3H]melatonin from human melatonin MT2 receptor expressed in CHO cells after 60 mins by scintillation counting; format: cell-based
T1 sequence (P49286 whole entry): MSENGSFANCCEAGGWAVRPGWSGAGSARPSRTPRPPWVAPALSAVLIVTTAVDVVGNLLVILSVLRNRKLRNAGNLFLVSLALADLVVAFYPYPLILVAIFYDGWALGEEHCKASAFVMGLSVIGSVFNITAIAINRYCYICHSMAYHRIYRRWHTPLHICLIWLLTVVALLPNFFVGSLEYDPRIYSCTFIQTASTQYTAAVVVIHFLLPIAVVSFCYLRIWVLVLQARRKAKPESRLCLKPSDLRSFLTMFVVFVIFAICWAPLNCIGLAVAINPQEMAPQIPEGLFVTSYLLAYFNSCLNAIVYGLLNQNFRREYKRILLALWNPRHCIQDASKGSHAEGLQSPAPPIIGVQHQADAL

[2] = target: Melatonin receptor type 1A (Homo sapiens, UniProt P48039); experiment: Displacement of [3H]melatonin from human melatonin MT1 receptor expressed in CHO cells after 60 mins by scintillation counting; format: cell-based
Chain of Melatonin receptor type 1A (P48039 whole entry): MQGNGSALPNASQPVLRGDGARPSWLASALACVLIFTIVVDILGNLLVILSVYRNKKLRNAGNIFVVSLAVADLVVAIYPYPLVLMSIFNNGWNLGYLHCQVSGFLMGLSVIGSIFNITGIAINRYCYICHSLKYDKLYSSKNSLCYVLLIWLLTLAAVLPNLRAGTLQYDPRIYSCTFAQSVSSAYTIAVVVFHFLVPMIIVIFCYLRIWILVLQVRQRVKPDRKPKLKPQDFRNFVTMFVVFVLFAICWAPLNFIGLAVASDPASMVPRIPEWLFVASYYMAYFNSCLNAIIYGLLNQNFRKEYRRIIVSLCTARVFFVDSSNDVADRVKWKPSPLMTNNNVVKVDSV

[3] = species on record: Homo sapiens; experiment: Selectivity ratio of Ki for human melatonin MT1 receptor to Ki for human melatonin MT2 receptor
[4] = Lipophilicity, log P of the compound; format: physicochemical; conditions: octanol/water
[5] = target: T2, Melatonin receptor type 1B (Homo sapiens) (UniProt P49286); experiment: Agonist activity at human MT2 receptor expressed as CHO cells assessed as intracellular Ca2+ accumulation by FLIPR assay; format: functional, cell-based
T2 sequence (whole entry): T1 sequence (P49286 whole entry)

| Compound | Ki [1] [nM] | Ki [2] [nM] | Ratio Ki [3] | logP [4] | Activity [5] |
| --- | --- | --- | --- | --- | --- |
| COc1cc(CCCNC(C)=O)ccc1O | 12.6 | 257 | 20.5 | – | – |
| COc1ccc(OC)c(CCCNC(C)=O)c1 | 26.1 | 1280 | 49.1 | – | – |
| CCC(=O)NCCCc1ccc(OCc2ccccc2)c(OC)c1 | 121 | 2010 | 16.7 | – | – |
| COc1ccc(COc2ccc(OC)cc2CCCNC(C)=O)cc1 | 27.9 | 2700 | 97 | – | – |
| COc1ccc(OCc2ccccc2)c(CCCNC(C)=O)c1 | 0.0471 | 879 | 18700 | – | – |
| COc1ccc(OCc2ccccn2)c(CCCNC(C)=O)c1 | 1.61 | 1840 | 1150 | – | – |
| COc1cccc(CCCNC(C)=O)c1 | 0.751 | 23.3 | 31 | – | – |
| COc1cccc(COc2ccc(CCCNC(C)=O)cc2OC)c1 | 105 | 1460 | 13.9 | – | – |
| COc1ccc2[nH]cc(CCNC(C)=O)c2c1 [MELATONIN] | – | – | – | 2.16 | – |
| CCC(=O)NCCCc1cccc(OC)c1 | 7.07 | 85.4 | 12 | – | – |
| COc1ccc(OCc2ccccc2)c(CCCNC(=O)c2ccccc2)c1 | 2300 | – | – | – | – |
| COc1ccc(OCCc2ccccc2)c(CCCNC(C)=O)c1 | 13.4 | 2930 | 219 | – | – |
| COc1ccc(O)c(CCCNC(C)=O)c1 | 46.2 | 379 | 8.22 | – | – |
| CCCC(=O)NCCCc1cc(OC)ccc1OCc1ccccc1 | 0.00103 | 1170 | 1.14e+06 | – | Active |
| COc1cccc(COc2ccc(OC)cc2CCCNC(C)=O)c1 | – | 705 | – | – | – |
| COc1cc(COc2ccc(OC)cc2CCCNC(C)=O)cc(OC)c1 | 0.0326 | – | – | – | – |
| COc1ccc(OCc2ccc(Br)cc2F)c(CCCNC(C)=O)c1 | 102 | – | – | – | – |
| COc1ccc(OCCCc2ccccc2)c(CCCNC(C)=O)c1 | 72.2 | – | – | – | – |
| CCCOc1ccc(OC)cc1CCCNC(C)=O | 2.12 | 400 | 189 | – | – |
| CCC(=O)NCCCc1cc(OC)ccc1OCc1ccccc1 | 0.00055 | 263 | 473000 | – | Active |
| CCOc1ccc(OC)cc1CCCNC(C)=O | 1.59 | 183 | 116 | – | – |
| COc1cc(CCCNC(C)=O)ccc1OCc1ccccc1 | 69.3 | 8980 | 130 | – | – |
